Measurements published in US20220119354A1, “DIAMINO-SUBSTITUTED PYRIDINES AND PYRIMIDINES AS HERBICIDES” (FMC Corporation, priority 2019, published 2022).

Key:
Type in all cases: in vivo
[1] = system: barnyardgrass (Echinochloa crus-galli); assay: Test A preemergence, barnyardgrass; settings: 0 to 100 scale, 0 is no effect, 100 is complete control
Outline: (§1)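 Pots of loam–sand mix; preemergence directed soil spray at sowing, postemergence spray at one- to two-leaf stage. Readout: visual injury vs untreated controls, ~10 d, 0–100 scale.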

kochia (Kochia scoparia) [2] = assay: Test A preemergence, kochia; settings: 0 to 100 scale, 0 is no effect, 100 is complete control
Outline: as §1

[3] = system: ragweed (common ragweed, Ambrosia elatior); assay: Test A preemergence, ragweed; settings: 0 to 100 scale, 0 is no effect, 100 is complete control
Outline: as §1

[4] = system: ryegrass, Italian (Lolium multiflorum); assay: Test A preemergence, Italian ryegrass; settings: 0 to 100 scale, 0 is no effect, 100 is complete control
Outline: as §1

[5] = system: foxtail, giant (Setaria faberii); assay: Test A preemergence, giant foxtail; settings: 0 to 100 scale, 0 is no effect, 100 is complete control
Outline: as §1

[6] = system: pigweed (Amaranthus retroflexus); assay: Test A preemergence, pigweed; settings: 0 to 100 scale, 0 is no effect, 100 is complete control
Outline: as §1

[7] = system: barnyardgrass (Echinochloa crus-galli); assay: Test A postemergence, barnyardgrass; settings: 0 to 100 scale, 0 no effect, 100 complete control
Outline: as §1

kochia (Kochia scoparia) [8] = assay: Test A postemergence, kochia; settings: 0 to 100 scale, 0 no effect, 100 complete control
Outline: as §1

[9] = system: ragweed (common ragweed, Ambrosia elatior); assay: Test A postemergence, ragweed; settings: 0 to 100 scale, 0 no effect, 100 complete control
Outline: as §1

[10] = system: ryegrass, Italian (Lolium multiflorum); assay: Test A postemergence, Italian ryegrass; settings: 0 to 100 scale, 0 no effect, 100 complete control
Outline: as §1

[11] = system: foxtail, giant (Setaria faberii); assay: Test A postemergence, giant foxtail; settings: 0 to 100 scale, 0 no effect, 100 complete control
Outline: as §1

[12] = system: pigweed (Amaranthus retroflexus); assay: Test A postemergence, pigweed; settings: 0 to 100 scale, 0 no effect, 100 complete control
Outline: as §1

[13] = system: wheat (Triticum aestivum); assay: Test A postemergence, wheat; settings: 0 to 100 scale, 0 no effect, 100 complete control
Outline: as §1

corn (Zea mays) = assay: Test A postemergence, corn; settings: 0 to 100 scale, 0 no effect, 100 complete control
Outline: as §1

[14] = system: blackgrass (Alopecurus myosuroides); assay: Test A postemergence, blackgrass; settings: 0 to 100 scale, 0 no effect, 100 complete control
Outline: as §1

[15] = system: galium (catchweed bedstraw, Galium aparine); assay: Test A postemergence, galium; settings: 0 to 100 scale, 0 no effect, 100 complete control
Outline: as §1

rice (Oryza sativa) = assay: Test B flooded paddy test, rice; settings: Flood, 250 g ai/ha, applied to paddy water, 2-leaf stage, visual evaluation after 13 to 15 d
Outline: (§2)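 Plants grown to 2-leaf stage. Compounds applied directly into paddy water flooded 3 cm above soil, with that depth kept throughout. After 13–15 d in greenhouse, visual rating versus controls on a 0–100 scale (0 no effect, 100 complete control).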

[16] = system: sedge, umbrella (small-flower umbrella sedge, Cyperus difformis); assay: Test B flooded paddy test, umbrella sedge; settings: Flood, 250 g ai/ha, applied to paddy water, 2-leaf stage, visual evaluation after 13 to 15 d
Outline: as §2

[17] = system: ducksalad (Heteranthera limosa); assay: Test B flooded paddy test, ducksalad; settings: Flood, 250 g ai/ha, applied to paddy water, 2-leaf stage, visual evaluation after 13 to 15 d
Outline: as §2

[18] = system: barnyardgrass (Echinochloa crus-galli); assay: Test B flooded paddy test, barnyardgrass; settings: Flood, 250 g ai/ha, applied to paddy water, 2-leaf stage, visual evaluation after 13 to 15 d
Outline: as §2

| SMILES | Barnyardgrass plant response rating ([1]; 125 g ai/ha) | Barnyardgrass plant response rating ([1]; 500 g ai/ha) | Kochia plant response rating (kochia (Kochia scoparia) [2]; 125 g ai/ha) | Kochia plant response rating (kochia (Kochia scoparia) [2]; 500 g ai/ha) | Ragweed plant response rating ([3]; 125 g ai/ha) | Ragweed plant response rating ([3]; 500 g ai/ha) | Ryegrass, Italian plant response rating ([4]; 125 g ai/ha) | Ryegrass, Italian plant response rating ([4]; 500 g ai/ha) | Foxtail, Giant plant response rating ([5]; 125 g ai/ha) | Foxtail, Giant plant response rating ([5]; 500 g ai/ha) | Pigweed plant response rating ([6]; 125 g ai/ha) | Pigweed plant response rating ([6]; 500 g ai/ha) | Plant response rating, Barnyardgrass ([7]; 125 g ai/ha) | Plant response rating, Barnyardgrass ([7]; 500 g ai/ha) | Plant response rating, Kochia (kochia (Kochia scoparia) [8]; 125 g ai/ha) | Plant response rating, Kochia (kochia (Kochia scoparia) [8]; 500 g ai/ha) | Plant response rating, Ragweed ([9]; 125 g ai/ha) | Plant response rating, Ragweed ([9]; 500 g ai/ha) | Plant response rating, Ryegrass, Italian ([10]; 125 g ai/ha) | Plant response rating, Ryegrass, Italian ([10]; 500 g ai/ha) | other results |
| --- | --- | --- | --- | --- | --- | --- | --- | --- | --- | --- | --- | --- | --- | --- | --- | --- | --- | --- | --- | --- | --- |
| CC[C@@H](Nc1ncc(C(F)(F)F)c(N)n1)c1cc2ccc(F)cc2o1 [Compound 63] | 70 | 100 | 80 | 100 | 50 | 100 | 40 | 90 | 60 | 100 | 90 | 100 | 30 | 60 | 80 | 90 | 30 | 60 | 0 | 0 | Plant response rating, Foxtail, Giant ([11]; 125 g ai/ha): 20; Plant response rating, Foxtail, Giant ([11]; 500 g ai/ha): 90; Plant response rating, Pigweed ([12]; 125 g ai/ha): 100; Plant response rating, Pigweed ([12]; 500 g ai/ha): 100; Plant response rating, Wheat ([13]; 125 g ai/ha): 0; Plant response rating, Wheat ([13]; 500 g ai/ha): 0; Plant response rating, Corn (corn (Zea mays); 125 g ai/ha): 0; Plant response rating, Corn (corn (Zea mays); 500 g ai/ha): 10; Plant response rating, Blackgrass ([14]; 125 g ai/ha): 0; Plant response rating, Blackgrass ([14]; 500 g ai/ha): 20; Plant response rating, Galium ([15]; 125 g ai/ha): 50; Plant response rating, Galium ([15]; 500 g ai/ha): 90; Plant response rating, Rice (0 to 100 scale, 0 is no effect, 100 is complete control) (rice (Oryza sativa)): 0; Plant response rating, Sedge, Umbrella (0 to 100 scale, 0 is no effect, 100 is complete control) [16]: 80; Plant response rating, Ducksalad (0 to 100 scale, 0 is no effect, 100 is complete control) [17]: 75; Plant response rating, Barnyardgrass (0 to 100 scale, 0 is no effect, 100 is complete control) [18]: 45 |
| CC[C@H](Nc1ncc(C(F)(F)F)c(N)n1)c1cc2ccc(F)cc2o1 [Compound 64] | 0 | 0 | 0 | 0 | 0 | 0 | 0 | 0 | 0 | 0 | 0 | 0 | 0 | 20 | 0 | 30 | 0 | 20 | 0 | 0 | Plant response rating, Foxtail, Giant ([11]; 125 g ai/ha): 0; Plant response rating, Foxtail, Giant ([11]; 500 g ai/ha): 0; Plant response rating, Pigweed ([12]; 125 g ai/ha): 20; Plant response rating, Pigweed ([12]; 500 g ai/ha): 60; Plant response rating, Wheat ([13]; 125 g ai/ha): 0; Plant response rating, Wheat ([13]; 500 g ai/ha): 0; Plant response rating, Corn (corn (Zea mays); 125 g ai/ha): 0; Plant response rating, Corn (corn (Zea mays); 500 g ai/ha): 0; Plant response rating, Blackgrass ([14]; 125 g ai/ha): 0; Plant response rating, Blackgrass ([14]; 500 g ai/ha): 0; Plant response rating, Galium ([15]; 125 g ai/ha): 0; Plant response rating, Galium ([15]; 500 g ai/ha): 30; Plant response rating, Rice (0 to 100 scale, 0 is no effect, 100 is complete control) (rice (Oryza sativa)): 0; Plant response rating, Sedge, Umbrella (0 to 100 scale, 0 is no effect, 100 is complete control) [16]: 0; Plant response rating, Ducksalad (0 to 100 scale, 0 is no effect, 100 is complete control) [17]: 0; Plant response rating, Barnyardgrass (0 to 100 scale, 0 is no effect, 100 is complete control) [18]: 0 |
| C[C@@H](Nc1nc(N)c(C(F)(F)F)c(C(F)(F)F)n1)c1cc2ccccc2o1 [Compound 65] | 0 | 0 | 0 | 0 | 0 | 40 | 0 | 0 | 0 | 0 | 0 | 0 | 0 | 0 | 0 | 60 | 0 | 0 | 0 | 0 | Plant response rating, Foxtail, Giant ([11]; 125 g ai/ha): 0; Plant response rating, Foxtail, Giant ([11]; 500 g ai/ha): 0; Plant response rating, Pigweed ([12]; 125 g ai/ha): 0; Plant response rating, Pigweed ([12]; 500 g ai/ha): 30; Plant response rating, Wheat ([13]; 125 g ai/ha): 30; Plant response rating, Wheat ([13]; 500 g ai/ha): 30; Plant response rating, Corn (corn (Zea mays); 125 g ai/ha): 0; Plant response rating, Corn (corn (Zea mays); 500 g ai/ha): 0; Plant response rating, Blackgrass ([14]; 125 g ai/ha): 0; Plant response rating, Blackgrass ([14]; 500 g ai/ha): 0; Plant response rating, Galium ([15]; 125 g ai/ha): 0; Plant response rating, Galium ([15]; 500 g ai/ha): 0; Plant response rating, Rice (0 to 100 scale, 0 is no effect, 100 is complete control) (rice (Oryza sativa)): 0; Plant response rating, Sedge, Umbrella (0 to 100 scale, 0 is no effect, 100 is complete control) [16]: 0; Plant response rating, Ducksalad (0 to 100 scale, 0 is no effect, 100 is complete control) [17]: 0; Plant response rating, Barnyardgrass (0 to 100 scale, 0 is no effect, 100 is complete control) [18]: 0 |
